Data taken from article PMC11474946, “Role of DNA Double-Strand Break Formation in Gyrase Inhibitor-Mediated Killing of Nonreplicating Persistent Mycobacterium tuberculosis in Caseum” (ACS Infectious Diseases, 2024).
pEC50: −log10 of the molar value. Where two headings read alike, the source gives them in different places.

Biological target: T1, M. tuberculosis gyrase (MTB DNA gyrase) (Mycobacterium tuberculosis, UniProt P9WG45+P9WG47)
T1 construct: gene gyrA
Experiment: DNA supercoiling inhibition, relaxed pBR322, agarose gel
Assay type: biochemical

T1 sequence (P9WG47 2-838): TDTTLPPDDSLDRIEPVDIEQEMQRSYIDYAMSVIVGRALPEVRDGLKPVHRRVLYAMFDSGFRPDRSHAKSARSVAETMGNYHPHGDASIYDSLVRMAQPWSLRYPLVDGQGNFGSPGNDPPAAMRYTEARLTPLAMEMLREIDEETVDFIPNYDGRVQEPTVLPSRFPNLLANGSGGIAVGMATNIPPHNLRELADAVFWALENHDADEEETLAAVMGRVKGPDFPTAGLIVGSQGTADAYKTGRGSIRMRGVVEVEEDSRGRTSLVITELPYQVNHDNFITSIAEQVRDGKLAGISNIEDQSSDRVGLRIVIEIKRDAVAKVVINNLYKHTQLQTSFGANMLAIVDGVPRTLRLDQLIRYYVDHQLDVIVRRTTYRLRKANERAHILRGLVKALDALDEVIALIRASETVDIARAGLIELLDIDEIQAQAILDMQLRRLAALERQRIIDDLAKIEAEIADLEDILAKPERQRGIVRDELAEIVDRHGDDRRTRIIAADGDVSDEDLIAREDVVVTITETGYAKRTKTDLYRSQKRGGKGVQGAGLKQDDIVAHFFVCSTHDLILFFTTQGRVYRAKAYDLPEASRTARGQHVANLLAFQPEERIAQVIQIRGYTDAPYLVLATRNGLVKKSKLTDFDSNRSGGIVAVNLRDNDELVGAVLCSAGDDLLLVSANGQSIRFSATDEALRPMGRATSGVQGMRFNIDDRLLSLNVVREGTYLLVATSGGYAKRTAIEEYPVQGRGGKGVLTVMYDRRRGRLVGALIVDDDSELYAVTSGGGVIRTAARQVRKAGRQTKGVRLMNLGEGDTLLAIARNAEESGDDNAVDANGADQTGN
T1 sequence (P9WG45 whole entry): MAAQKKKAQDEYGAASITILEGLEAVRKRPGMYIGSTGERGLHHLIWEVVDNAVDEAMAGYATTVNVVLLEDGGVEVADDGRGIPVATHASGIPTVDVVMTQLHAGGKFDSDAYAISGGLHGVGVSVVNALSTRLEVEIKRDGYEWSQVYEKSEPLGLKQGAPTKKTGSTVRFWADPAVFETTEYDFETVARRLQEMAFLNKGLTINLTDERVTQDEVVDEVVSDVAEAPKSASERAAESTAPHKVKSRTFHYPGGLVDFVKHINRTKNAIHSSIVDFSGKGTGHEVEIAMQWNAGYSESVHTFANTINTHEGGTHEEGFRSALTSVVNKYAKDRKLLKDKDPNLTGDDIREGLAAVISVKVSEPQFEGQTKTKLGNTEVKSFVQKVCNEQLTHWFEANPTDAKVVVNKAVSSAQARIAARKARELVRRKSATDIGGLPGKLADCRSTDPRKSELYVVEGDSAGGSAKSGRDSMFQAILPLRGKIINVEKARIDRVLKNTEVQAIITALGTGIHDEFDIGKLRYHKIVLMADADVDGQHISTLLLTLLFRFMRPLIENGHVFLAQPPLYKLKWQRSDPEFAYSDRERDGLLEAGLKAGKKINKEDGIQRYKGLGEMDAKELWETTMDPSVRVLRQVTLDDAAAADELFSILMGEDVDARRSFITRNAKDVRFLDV

Molecule	pEC50	pEC50 (37 °C, 30 min, relaxed pBR322)
COc1c(N2CCNC(C)C2)c(F)cc2c(=O)c(C(=O)O)cn(C3CC3)c12 (stereo not drawn) [Gatifloxacin]	5.30	–
N[C@@H]1CN(c2c(F)cc3c(=O)c(C(=O)O)cn([C@@H]4C[C@@H]4F)c3c2Cl)CC12CC2 [Sitafloxacin]	6.00	–
C[C@H]1COc2c(N3CCN(C)CC3)c(F)cc3c(=O)c(C(=O)O)cn1c23 [Levofloxacin]	5.00	–
EC/11716	–	7.00
CCNC(=O)Nc1nc2cc(-c3cnc(C(C)(C)O)nc3)c(F)c([C@H]3CCCO3)c2[nH]1 [SPR719]	6.52	–
Nc1nc(-n2cc(C(=O)O)c(=O)c3cc(F)c(N4CC(O)C4)c(Cl)c32)c(F)cc1F [Delafloxacin]	4.64	–
